Results: patent US20230126310A1 (priority 2020, published 2023)
Where a name gives a salt, the structure may show the parent alone.

System: SARS-CoV-2
Conditions: for % Inh. (% Inhibition of SARS-CoV-2): 10 µM

| Compound | % Inh. (% Inhibition of SARS-CoV-2) | other results |
| --- | --- | --- |
| C=C1/C(=C\C=C2/CCC[C@]3(C)[C@@H]([C@H](C)/C=C/[C@H](C)C(C)(C)O)CC[C@@H]23)C[C@@H](O)C[C@@H]1O [Ercalcitriol] | 86.9% |  |
| CCCCCCN(CCCCCC)C(=O)Cc1c(-c2ccc(F)cc2)[nH]c2ccccc12 [FGIN-1-27] | 73.5% |  |
| Nc1[nH]nc2nnc(-c3c(-c4ccccc4)nn4ccccc34)cc12 [FR-180204] | 58.8% |  |
| CNC[C@H](O)[C@@H](O)[C@H](O)[C@H](O)CO.CNC[C@H](O)[C@@H](O)[C@H](O)[C@H](O)CO.C[C@@H](O[C@H]1OCCN(Cc2nn(P(=O)(O)O)c(=O)[nH]2)[C@H]1c1ccc(F)cc1)c1cc(C(F)(F)F)cc(C(F)(F)F)c1 [Fosaprepitant dimeglumine salt] | 78.3% |  |
| Cl.Cl.Fc1ccc(C(OCCN2CCN(C/C=C/c3ccccc3)CC2)c2ccc(F)cc2)cc1 [GBR-13069] | 66.7% |  |
| Cc1ccc(Nc2ncc3c(n2)N(C)C(=O)N(c2cc(NC(=O)c4cccc(C(F)(F)F)c4)ccc2C)C3)cn1 [GNF-7] | 107.6% |  |
| O=C1NC(=O)/C(=C/c2ccc3nccc(-c4ccncc4)c3c2)S1 [GSK1059615] | 92.4% |  |
| Cc1c(Cn2c(C)nc3c(C(=O)O)cc(N4CCOCC4)cc32)cccc1C(F)(F)F [GSK2636771] | 88.1% |  |
| Cc1cccc(CC(=O)N2CCc3c2ccc(-c2cn(C)c4ncnc(N)c24)c3F)n1 [GSK2656157] | 95.0% |  |
| CCCCCCCC/C=C/CCCCCCCC(=O)OC[C@H]1O[C@@H](n2ccc(N)nc2=O)C(F)(F)[C@@H]1O [Gemcitabine (elaidate)] | 111.3% |  |
| N[C@H]1CCN(O)C1=O [HA-966-(S)-(−)] | 52.3% |  |
| Cc1ccc(-c2csc(NC(=O)c3ccccc3)n2)c(C)c1 [INH1] | 89.8% |  |
| CC(C)n1nc(-c2ccc3oc(N)nc3c2)c2c(N)ncnc21 [INK 128 (MLN0128)] | 84.9% |  |
| CCCCN1[C@@H]2CC[C@H]1CC(OC(c1ccc(F)cc1)c1ccc(F)cc1)C2 (stereo partly shown) [JHW-007] | 93.1% |  |
| Clc1ccc(N/N=C(\c2ccccc2)c2ccccn2)nc1 [JIB04 (NSC693627)] | 106.4% |  |
| CCOc1ccc(Nc2nc(-c3c(C)nc4ccccn34)cs2)cc1 [JK-184] | 65.2% |  |
| O=C(Nc1ccccc1)N1CCN(c2nc(-c3ccccc3)ns2)CC1 [JNJ 1661010] | 93.8% |  |
| O=C(Nc1cnccc1Cl)N1CCN(Cc2ccc3c(c2)OC(F)(F)O3)CC1 [JNJ-42165279] | 94.9% |  |
| COc1cc(SC)ccc1C(=O)N1CCC(Cc2ccccc2)CC1 [JX-401] | 71.2% |  |
| CSc1ccccc1Nc1nc(N2CCNCC2)nc2c(NCC3CC3)ncnc12 [KHK-IN-1 (hydrochloride)] | 71.8% |  |
| CC(C)CNc1ccnc(NCc2csc(-c3ccccc3)n2)n1 [KHS-101] | 91.2% |  |
| CN([C@@H](Cc1ccc(OS(=O)(=O)c2cccc3cnccc23)cc1)C(=O)N1CCN(c2ccccc2)CC1)S(=O)(=O)c1cccc2cnccc12 [KN-62] | 96.5% |  |
| COc1ccc(S(=O)(=O)N(CCO)c2ccccc2CN(C)C/C=C/c2ccc(Cl)cc2)cc1 [KN-93] | 88.4% |  |
| O=C(Cc1ccc(-c2ccc(OCCN3CCOCC3)cc2)cn1)NCc1ccccc1 [KX2-391] | 79.9% |  |

| Compound | % Inh. (% Inhibition of SARS-CoV-2) | other results |
| --- | --- | --- |
| FC(F)(F)c1cc(CO[C@H]2CCCN[C@H]2c2ccccc2)cc(C(F)(F)F)c1 [L-733060] | 53.9% |  |
| CC(=O)O[C@H]1C[C@H](O[C@H]2[C@@H](O)C[C@H](O[C@H]3[C@@H](O)C[C@H](O[C@H]4CC[C@@]5(C)[C@H](CC[C@@H]6[C@@H]5C[C@@H](O)[C@]5(C)[C@@H](C7=CC(=O)OC7)CC[C@]65O)C4)O[C@@H]3C)O[C@@H]2C)O[C@H](C)[C@H]1O[C@@H]1O[C@H](CO)[C@@H](O)[C@H](O)[C@H]1O [LANATOSIDE C] | 63.7% |  |
| Cl.c1ccc2c(-c3cnn4cc(-c5ccc(N6CCNCC6)cc5)cnc34)ccnc2c1 [LDN193189 (Hydrochloride)] | 74.3% |  |
| CN1c2cc3c(cc2N=C(c2ccc(C(=O)O)cc2)c2ccccc21)C(C)(C)CCC3(C)C [LE-135] | 105.5% |  |
| CCOC(=O)N1CCC(=C2c3ccc(Cl)cc3CCc3cccnc32)CC1 [LORATADINE] |  | % Inh (% inhibition of virus infection) (comparative experiments, Examples 1 and 2): 91.4% |
| CC(C)NC(=O)c1ccc(C#Cc2ccncc2)cn1 [LSN-2463359] | 74.9% |  |
| COc1ccc(CC2NCCc3c2[nH]c2ccc(C)cc32)c(Cl)c1OC (stereo not shown) [LY266097] | 89.3% |  |
| CC(C)c1c2cc(-c3ccnc(NC4CCC(NC5CCOCC5)CC4)n3)ccc2nn1C (stereo not shown) [LY2857785] | 89.1% |  |
| CNc1ncc2cc(-c3cc(NC(=O)NCCC(C)(C)C)c(F)cc3C)c(C)nc2n1 [LY3009120] | 101.6% |  |
| CO[C@@H](C)Cn1c(=O)n(C)c2cnc3ccc(-c4cncc(C(C)(C)O)c4)cc3c21 [LY3023414] | 92.7% |  |
| CC(CNS(=O)(=O)C(C)C)c1ccc(-c2ccc(C#N)cc2)cc1 (stereo not shown) [LY-404187] | 80.4% |  |
| N#CC(=C(N)Sc1ccc(N)cc1)c1ccccc1C(F)(F)F [MEK1-2-inhibitor] | 66.9% |  |
| O=C(O)[C@]1(Cc2cccc(Nc3nccs3)n2)CC[C@@H](Oc2cccc(Cl)c2F)CC1 [MK-5108 (VX-689)] | 77.9% |  |
| COc1cc2nc(C3CC3)nc(N3CCN(c4ccccc4OC)CC3)c2cc1OC [ML314] | 87.7% |  |
| O=S(=O)(c1cccc2c(Cl)cccc12)N1CCCNCC1 [ML-9] | 91.9% |  |
| Cc1cc(C)c(NC(=O)C2CC3CCC2C3)c(C)c1 (stereo not shown) [ML-213] | 69.5% |  |
| COc1ccc(-c2csc(NC(=O)[C@H]3CCCCN3S(=O)(=O)c3ccc(C)cc3)n2)cc1 [ML-277] | 99.3% |  |
| COc1ccccc1C(=O)Nc1cccc(NC(=O)c2cccc(C)c2)c1 [ML-365] | 92.7% |  |
| CC(C)(N)c1cc(C(=O)N[C@@H]2CCc3ccc(Oc4ccnc5c4CCC(=O)N5)cc3C2)cc(C(F)(F)F)c1 [ML-786] | 105.5% |  |
| CSc1nc(-c2ccnc(NC(C)c3ccccc3)c2)c(-c2ccc(F)cc2)[nH]1 (stereo not shown) [ML-3403] | 50.3% |  |
| Cc1cc(N2CCOCC2)ccc1Nc1nc(NC2CCCCC2)c2[nH]cnc2n1 [MPI-0479605] | 61.2% |  |
| CCCCN1C[C@H](O)[C@@H](O)[C@H](O)[C@H]1CO [Miglustat (n-Butyldeoxynojirimycin)] | 64.4% |  |
| c1ccc2sc(SN3CCOCC3)nc2c1 [N-oxydiethylenebenzothiazole-2-sulfenamide] | 64.6% |  |
| COc1ccccc1C1(O)CCN(CCCn2c3ccccc3c3ccccc32)CC1 [NNC-05-2090] | 71.8% |  |

| Compound | % Inh. (% Inhibition of SARS-CoV-2) | other results |
| --- | --- | --- |
| CC(C)[C@H]1c2ccc(F)cc2CC[C@@]1(CCN(C)CCCc1nc2ccccc2[nH]1)OC(=O)C1CC1 [NNC-55-0396] | 58.1% |  |
| CC(C)(Cc1ccc2ccccc2c1)NC[C@@H](O)COc1cccc(Cl)c1C#N [NPS-2143 (SB262470)] | 67.3% |  |
| O=[N+]([O-])c1ccccc1S(=O)(=O)NCC1CCC(CNC[C@H]2CCc3ccccc3C2)CC1 (stereo partly shown) [NTNCB] | 92.7% |  |
| Nc1nc(OCC2CCCCC2)c2[nH]cnc2n1 [NU-2058] | 51.9% |  |
| COc1cccc(-c2cc(F)ccc2[C@H]2Cc3nc(N)nc(C)c3C(=O)N2)n1 [NVP-HSP990] | 100.4% |  |
| CNC(=O)c1ccccc1Nc1nc(Nc2ccc(N3CCOCC3)cc2OC)ncc1Cl [NVP-TAE226] | 73.2% |  |
| CN1CC[C@@H](c2c(O)cc(O)c3c(=O)cc(-c4ccccc4Cl)oc23)[C@@H]1CO.Cl [P276-00] | 94.4% |  |
| COC(=O)C1=C(C)NC(C)=C(C(=O)OCCSc2ccccc2)C1C (stereo not shown) [PCA-4248] | 55.3% |  |
| C=CC(=O)Nc1ccc2ncnc(Nc3cccc(Br)c3)c2c1 [PD168393] | 51.5% |  |
| CCOC(=O)c1c(C)[nH]c2ccc3c(c12)CN1CCc2cc(OC)ccc2C1O3 (stereo not shown) [PD-102807] | 121.8% |  |
| CNc1cc2c(Nc3cccc(Br)c3)ncnc2cn1 [PD-158780] | 98.3% |  |
| CCN(CC)CCCCNc1ncc2cc(-c3c(Cl)cccc3Cl)c(NC(=O)NC(C)(C)C)nc2n1 [PD-161570] | 108.1% |  |
| Cc1cc(I)ccc1Nc1c(C(=O)NOCC2CC2)cc(F)c(F)c1F [PD-198306] | 51.6% |  |
| CCCCCCCCCCCCCCCc1cccc(OCC(=O)NCCO)c1 [PDP-EA] | 65.3% |  |
| O=C(Nc1ccccc1)N1CCC(Cc2cnc3ccccc3c2)CC1 [PF-750] | 85.2% |  |
| N#Cc1ccc(N2N=C3c4ccc(C(=O)O)cc4CC[C@@H]3[C@@H]2C2CCCC2)cc1Cl [PF-03882845] | 58.6% |  |
| CC1(C)CC(=O)c2c(C(F)(F)F)nn(-c3ccc(C(N)=O)c(N[C@H]4CC[C@H](OC(=O)CN)CC4)c3)c2C1 [PF-04929113 (SNX-5422)] | 91.3% |  |
| O=C(/C=C/c1ccc2ccccc2n1)c1ccncc1 [PFK-015] | 101.3% | IC50: 7.03 µM; pIC50: 5.15 |
| Cc1ccc([N+](=O)[O-])cc1S(=O)(=O)N(C)/N=C/c1cnc2ccc(Br)cn12 [PIK-75] | 87.6% |  |
| FC(F)(F)c1ccc(CNc2ccc(Cc3c[nH]c4ncccc34)cn2)cc1 [PLX-647] | 95.7% |  |
| Cc1ccc(-c2nn(C(C)(C)C)c3ncnc(N)c23)cc1 [PP-1] | 121.9% |  |
| CCCCC1CCC(c2nc(-c3ccncc3)no2)CC1 (stereo not shown) [PSN-375963] | 83.9% |  |
| COc1cc(Br)c(Nc2nc(-c3c(C)nc4ncccn34)cs2)c(Br)c1 [PTC-209] | 103.6% |  |
